# According to patent publication US12691186B2, “B7-H3 miniproteins, conjugates, and uses thereof” (priority 2023, dated 2026):
# Primed or numbered codes have the meaning given here. [ ]: non-standard residue; d: D form. The star is where a group is joined. Biotin = O=C1N[C@H]2[C@H](CS[C@H]2CCCCC(=O)*)N1; Lys(Me2) = CN(C)CCCC[C@H](N)C(=O)O; PEG4′ = not defined here
# Assays:
# [1] = tested on: >6,500 different human proteins; experiment: Off-target binding, cell microarray platform (Retrogenix Assay) in HEK293 cells; conditions: biotin-labeled molecules
# Method: To evaluate potential off-target binding, eight biotin-labeled molecules were tested in a cell microarray platform (Charles River Lab, Retrogenix Assay) having >6,500 different human proteins spanning diverse functions and subcellular locations.
# Initially, two pools of molecules were tested. Pool #1 consisted of C298, C300, C302, C304, and pool #2 consisted of C306, C308, C310, and C312 at 2 μg/mL for each molecule. To perform this assay, HEK293 cells were plated on a dish and localized spots of cells were transiently over-expressed with a cDNA encoding for one of the >6,500 targets. Included in this library were two isoforms of CD276 (B7-H3) and B7-H3 related proteins (B7-1, B7-2, B7-H1/PD-L1, and B7-H2). The molecule pools were incubated on the fixed, over-expressing cell microarrays (n=2 per protein), and binding was visualized using Alexa Fluor 647 streptavidin fluorescence. All transfection efficiencies exceeded minimum thresholds for the microarray expression targets. Preliminary interactions identified from pooled results were re-spotted in duplicates, and each of the eight compounds were tested individually (n=2) at 2 μg/mL and/or in dose response against these targets as described above to validate the interactions.
# All positive control interactions were strong and passed quality control. Specific interactions observed (median SNR≥1) confirmed on-target B7-H3 binding in two different isoforms for each of the eight test molecules. These interactions with the primary target occurred after fixation and in live cells (absence of fixation). No significant additional interactions were confirmed for any test molecules outside of B7-H3, indicating high specificity for the primary target (data not shown).
# [2] = tested on: opossum kidney proximal tubule cells; experiment: OK-PTC uptake assay of miniprotein conjugates in presence of scaffold A decoys; type: cell-based; conditions: compound 20 μM; for % Uptake reduction in the presence of a decoy C118: 20-fold molar excess of decoy C118; for % Uptake reduction in the presence of a decoy C119: 20-fold molar excess of decoy C119
# Method: This Example describes reduction of uptake of exemplary truncated and constrained B7-H3 miniprotein conjugates (C272, C308, C234, C394, C250, and C228) when combined with exemplary scaffold A decoys (C118, C119 and C120) as compared to no decoy. Uptake of compounds was evaluated in opossum kidney proximal tubule cells (as described in Example 5). Here, cells were treated with a compound in the presence or absence of a 20-fold molar excess of exemplary scaffold A decoys, C118, C119, and C120. Results depicting uptake of six exemplary B7-H3-targeting compounds, C272, C308, C234, C394, C250, and C228, in OK-PTC cells in the presence and absence of exemplary decoys C118, C119, and C120 (scaffold A decoys) are shown in Table 13. The B7-H3-targeting compounds were used at 20 μM and the decoys used at a 20-fold (with C272, C308, C234, C394, and C250) and 10-fold (with C228) molar excess.
# [3] = In vitro metabolic stability, kidney brush border membrane preparations (KBBM); type: in vitro ADME; set-up: unit not given here; conditions: mouse kidney brush border membrane preparation, 37° C.
# Method: (§1) Exemplary miniprotein conjugates were spiked into biological matrices at initial concentration between 1-2 μM. Tested matrices were varied by species (mouse, rat, human) and type (plasma, serum, and kidney brush border membrane preparations tested each from 0.625-100 μg/mL protein content). Tested conditions were incubated with TAs at 37° C. for 4 hours. At collection points of 0, 15, 30, 60, 120, 240 minutes, 50 μL of each condition were quenched by organic solvent (methanol or acetonitrile) or the addition of 4% phosphoric acid solution. Fractions of each quenched timepoint were subsequently assayed for parent TA concentration by high resolution LC-MS. Percent-parent-remaining-time plots were constructed from the ratio of each given time collection to the time-zero parent TA. Percent-parent-remaining in mouse serum and plasma for exemplary miniproteins are recorded in Table 8.
# [4] = In vitro metabolic stability, plasma; type: in vitro ADME; set-up: unit not given here; conditions: 37° C.
# Method: as §1
compound,measurement,setting,value
CC[C@H](C)[C@@H]1NC(=O)[C@H](Cc2ccccc2)NC(=O)[C@H](C)NC(=O)[C@H](CCCCN(C)C)NC(=O)[C@H]([C@@H](C)CC)NC(=O)[C@H](CCC(N)=O)NC(=O)[C@H](C)NC(=O)[C@H](Cc2ccc(O)cc2)NC(=O)[C@H]([C@@H](C)O)NC(=O)[C@H](CC(C)C)NC(=O)[C@@H]2CSSC[C@@H](C(=O)N[C@@H](CO)C(N)=O)NC(=O)[C@H](CC(C)C)NC(=O)[C@H](CCC(=O)O)NC(=O)[C@H](CCCCN)NC(=O)[C@H](C)NC(=O)[C@H](CCC(=O)O)NC(=O)[C@H](CO)NC(=O)[C@H](CC(C)C)NC(=O)[C@H]([C@@H](C)CC)NC(=O)[C@H](CCC(=O)O)NC(=O)[C@H](C)NC(=O)[C@H](CO)NC(=O)[C@H](CCC(N)=O)NC(=O)[C@H](CSSC[C@H](NC(=O)CCOCCOCCOCCOCCNC(=O)CCCC[C@@H]3SC[C@@H]4NC(=O)N[C@@H]43)C(=O)N[C@@H](C)C(=O)N[C@@H](CCCNC(=N)N)C(=O)N[C@@H](CCC(=O)O)C(=O)N[C@@H](CCCCN)C(=O)N[C@@H]([C@@H](C)CC)C(=O)N[C@@H](C)C(=O)N[C@@H](C)C(=O)N[C@@H](CC(C)C)C(=O)N[C@@H](CO)C(=O)N[C@@H](CCC(=O)O)C(=O)N[C@@H]([C@@H](C)CC)C(=O)N[C@@H]([C@@H](C)CC)C(=O)N[C@@H](Cc3c[nH]c4ccccc34)C(=O)N[C@@H](CC(C)C)C(=O)N3CCC[C@H]3C(=O)N2)NC(=O)[C@@H]2CCCN2C(=O)[C@H](CC(=O)O)NC(=O)[C@H](CC(=O)O)NC(=O)[C@H](CC(N)=O)NC(=O)[C@H](CC(C)C)NC(=O)[C@H](C)NC(=O)[C@H](C)NC1=O [Compound C300],background binding to untransfected HEK293 cells,[1],low-background binding
CC[C@H](C)[C@@H]1NC(=O)[C@H](Cc2ccccc2)NC(=O)[C@H](C)NC(=O)[C@H](CCCCNC)NC(=O)[C@H]([C@@H](C)CC)NC(=O)[C@H](CCC(N)=O)NC(=O)[C@H](C)NC(=O)[C@H](Cc2ccc(O)cc2)NC(=O)[C@H]([C@@H](C)O)NC(=O)[C@H](CC(C)C)NC(=O)[C@@H]2CSSC[C@@H](C(=O)N[C@@H](CO)C(N)=O)NC(=O)[C@H](CC(C)C)NC(=O)[C@H](CCC(=O)O)NC(=O)[C@H](CCCCNC)NC(=O)[C@H](C)NC(=O)[C@H](CCC(=O)O)NC(=O)[C@H](CO)NC(=O)[C@H](CC(C)C)NC(=O)[C@H]([C@@H](C)CC)NC(=O)[C@H](CC(N)=O)NC(=O)[C@H](C)NC(=O)[C@H](CO)NC(=O)[C@H](CCC(N)=O)NC(=O)[C@H](CSSC[C@H](NC(=O)CCOCCOCCOCCOCCNC(=O)CCCC[C@@H]3SC[C@@H]4NC(=O)N[C@@H]43)C(=O)N[C@@H](C)C(=O)N[C@@H](CCCNC(=N)N)C(=O)N[C@@H](CCC(=O)O)C(=O)N[C@@H](CCCCN)C(=O)N[C@@H]([C@@H](C)CC)C(=O)N[C@@H](C)C(=O)N[C@@H](C)C(=O)N[C@@H](CC(C)C)C(=O)N[C@@H](CO)C(=O)N[C@@H](CCC(=O)O)C(=O)N[C@@H]([C@@H](C)CC)C(=O)N[C@@H]([C@@H](C)CC)C(=O)N[C@@H](Cc3c[nH]c4ccccc34)C(=O)N[C@@H](CC(C)C)C(=O)N3CCC[C@H]3C(=O)N2)NC(=O)[C@@H]2CCCN2C(=O)[C@H](CC(=O)O)NC(=O)[C@H](CC(=O)O)NC(=O)[C@H](CC(N)=O)NC(=O)[C@H](CC(C)C)NC(=O)[C@H](C)NC(=O)[C@H](C)NC1=O [Compound C302],background binding to untransfected HEK293 cells,[1],low-background binding
CC[C@H](C)[C@@H]1NC(=O)[C@H](Cc2ccccc2)NC(=O)[C@H](C)NC(=O)[C@H](CCCCNC)NC(=O)[C@H]([C@@H](C)CC)NC(=O)[C@H](CCC(N)=O)NC(=O)[C@H](C)NC(=O)[C@H](Cc2ccc(O)cc2)NC(=O)[C@H]([C@@H](C)O)NC(=O)[C@H](CC(C)C)NC(=O)[C@@H]2CSSC[C@@H](C(=O)N[C@@H](CO)C(N)=O)NC(=O)[C@H](CC(C)C)NC(=O)[C@H](CCC(=O)O)NC(=O)[C@H](CCCCNC)NC(=O)[C@H](C)NC(=O)[C@H](CCC(=O)O)NC(=O)[C@H](CO)NC(=O)[C@H](CC(C)C)NC(=O)[C@H]([C@@H](C)CC)NC(=O)[C@H](CCC(=O)O)NC(=O)[C@H](CO)NC(=O)[C@H](CO)NC(=O)[C@H](CCC(N)=O)NC(=O)[C@H](CSSC[C@H](NC(=O)CCOCCOCCOCCOCCNC(=O)CCCC[C@@H]3SC[C@@H]4NC(=O)N[C@@H]43)C(=O)N[C@@H](C)C(=O)N[C@@H](CCCC[N+](C)(C)C)C(=O)N[C@@H](CCC(=O)O)C(=O)N[C@@H](CCCCN)C(=O)N[C@@H]([C@@H](C)CC)C(=O)N[C@@H](C)C(=O)N[C@@H](C)C(=O)N[C@@H](CC(C)C)C(=O)N[C@@H](CO)C(=O)N[C@@H](CCC(=O)O)C(=O)N[C@@H]([C@@H](C)CC)C(=O)N[C@@H]([C@@H](C)CC)C(=O)N[C@@H](Cc3c[nH]c4ccccc34)C(=O)N[C@@H](CC(C)C)C(=O)N3CCC[C@H]3C(=O)N2)NC(=O)[C@@H]2CCCN2C(=O)[C@H](CC(=O)O)NC(=O)[C@H](CC(=O)O)NC(=O)[C@H](CC(N)=O)NC(=O)[C@H](CC(C)C)NC(=O)[C@H](C)NC(=O)[C@H](C)NC1=O [Compound C304],background binding to untransfected HEK293 cells,[1],low-background binding
CC[C@H](C)[C@@H]1NC(=O)[C@H](Cc2ccccc2)NC(=O)[C@H](C)NC(=O)[C@H](CCCCNC)NC(=O)[C@H]([C@@H](C)CC)NC(=O)[C@H](CCC(N)=O)NC(=O)[C@H](C)NC(=O)[C@H](Cc2ccc(O)cc2)NC(=O)[C@H](CC(N)=O)NC(=O)[C@H](CC(C)C)NC(=O)[C@@H]2CSSC[C@@H](C(=O)N[C@@H](CO)C(N)=O)NC(=O)[C@H](CC(C)C)NC(=O)[C@H](CCC(=O)O)NC(=O)[C@H](CCCCNC)NC(=O)[C@H](C)NC(=O)[C@H](CCC(=O)O)NC(=O)[C@H](CO)NC(=O)[C@H](CC(C)C)NC(=O)[C@H]([C@@H](C)CC)NC(=O)[C@H](CCC(=O)O)NC(=O)[C@H](CO)NC(=O)[C@H](CO)NC(=O)[C@H](CCC(N)=O)NC(=O)[C@H](CSSC[C@H](NC(=O)CCOCCOCCOCCOCCNC(=O)CCCC[C@@H]3SC[C@@H]4NC(=O)N[C@@H]43)C(=O)N[C@@H](C)C(=O)N[C@@H](CCCC[N+](C)(C)C)C(=O)N[C@@H](CCC(=O)O)C(=O)N[C@@H](CCCCN)C(=O)N[C@@H]([C@@H](C)CC)C(=O)N[C@@H](C)C(=O)N[C@@H](C)C(=O)N[C@@H](CC(C)C)C(=O)N[C@@H](CO)C(=O)N[C@@H](CCC(=O)O)C(=O)N[C@@H]([C@@H](C)CC)C(=O)N[C@@H]([C@@H](C)CC)C(=O)N[C@@H](Cc3c[nH]c4ccccc34)C(=O)N[C@@H](CC(C)C)C(=O)N3CCC[C@H]3C(=O)N2)NC(=O)[C@@H]2CCCN2C(=O)[C@H](CC(=O)O)NC(=O)[C@H](CC(=O)O)NC(=O)[C@H](CC(N)=O)NC(=O)[C@H](CC(C)C)NC(=O)[C@H](C)NC(=O)[C@H](C)NC1=O [Compound C310],background binding to untransfected HEK293 cells,[1],low-background binding
"C250 ({Biotin-PEG4′}-CAKEKIAALSEIIWLPCLTYAQI[Lys(Me2)]AFIAALNDDPCQSSEILSEAKELNDSQCP-NH2; disulfide (positions not given here); also: disulfide bonds between pairs of the four Cys, pairing not given here) [Compound C250]",% Uptake reduction in the presence of a decoy C118,[2],90.2%
same,% Uptake reduction in the presence of a decoy C119,[2],97.4%
"C272 (CAREKIAALSEIIWLPCLTYAQIXAFIAALNDDPCQSAEILSEAKELCS; Biotin-PEG4 N-term, dimethyllysine, C-amide; SITE 24 dimethyllysine) [Compound C272]",% Uptake reduction in the presence of a decoy C118,[2],95.6%
same,% Uptake reduction in the presence of a decoy C119,[2],98.8%
same,% Uptake reduction in the presence of a decoy C120,[2]; 20-fold molar excess of decoy C120,97.5%
"C493 (CAREKINALGEIIWLPCLTYDQIXAFIAXLNDDPCQSSEILSEAXELCS; not fully specified; DOTA-PEG4, methyl-Lys, C-terminal amide; SITE 24 monomethyllysine; SITE 29 monomethyllysine; SITE 45 monomethyllysine) [Compound C493]",In vitro Stability (mouse) - KBBM,[3],>12
same,In vitro Stability (mouse) - Plasma,[4],>12
